Data taken from US20260209777A1, “TARGETING GLYCOSYLPHOSPHATIDYLINOSITOL (GPI) PATHWAY PROTEINS TO TREAT OVARIAN CANCER” (UNIVERSITY OF MASSACHUSETTS, priority 2023, published 2026).

Assays:
Format in all cases: cell-based, human
[1] = system: CD24 cell surface expression in OVCAR8 cells; assay: CD24 flow cytometry analysis in OVCAR8 cells; conditions: OVCAR8; 3 days; bestatin 10 or 20 μM, tosedostat 5 or 10 μM, ARM1 1 or 2 μM; vs DMSO
Description: (§1) Flow Cytometry Analysis: For cell surface protein staining, 1×10^5-1×10^6 cells were first incubated with Fc receptor blocking solution, Human TruStain FcXTM (BioLegend, Cat #422301) for 10 minutes at room temperature. Cells were washed once in FACS buffer (1×PBS, 1.0% bovine serum albumin (BSA) (Sigma) and 0.2% sodium azide (Sigma), and then incubated with antibodies (given below) for 30 minutes at 4° C. in the dark. Cells were also stained with 7-AAD (Biolegend, Cat #420404) for dead cell exclusion, and flow cytometry analysis was performed using a Bio-Rad ZE5 Cell Analyzer. Following antibodies used in this study (all antibodies were used at 1:50 dilution unless otherwise noted): APC anti-human CD24 (BioLegend, Cat #311118, clone ML5), PE anti-human CD24 (eBioscience, Cat #12-0247-42, clone SN3), APC anti-human CD47 (BioLegend, Cat #323124, clone CC2C6), APC anti-human § 2-microglobulin (BioLegend, Cat #395711, clone […]), PE anti-human HLA-A2 (MHC-class I) (BioLegend, Cat #343305, clone BB7.2), APC anti-human CD11b (BioLegend, Cat #982604, clone ICRF44), APC anti-mouse F4/80 antibody (BioLegend, Cat #123116, clone BM8), APC-streptavidin (Thermo Fisher Scientific, Cat #SA1005, 1:100 dilution), PE anti-Calreticulin (Invitrogen, Catalog #MA5-15382, 1:200 dilution). For intracellular staining, cells were fixed with 1% paraformaldehyde for 5 min and permeabilized using the True-Nuclear Transcription Factor Buffer Set (BioLegend, Cat #424401) before the addition of the antibody. Small Molecule Inhibitor and Drug Treatments: OVCAR8 or SKOV3 cells were treated for 3 days with bestatin (Ubenimex) (SelleckChem, Cat #S1591) at 5, 10 or 20 μM (as indicated in the figure legends), Tosedostat (Medchem Express, Cat #HY-14807) at 5 μM or 10 μM (as indicated in the figure legends) or ARM-1 (Medchem Express, Cat #HY-W027340) at 1, or 2 μM (as indicated in the figure legends). Inhibitors were replenished every 24 hours. DMSO (Sigma Aldrich, Cat #D8418) was used as a vehicle. OVCAR8 cells were treated with Docetaxel (SelleckChem, Cat #S1148) at 100 nM or Carboplatin (SelleckChem, Cat #S1215 at 100 nM or Doxorubicin (SelleckChem, Cat #E2516) at 50 nM for 12 hours.

OVCAR8 cells = assay: In vitro phagocytosis assay of OVCAR8 cells by PBMC-derived M2 macrophages; conditions: OVCAR8; bestatin 20 μM, tosedostat 20 μM, ARM1 2 μM; vs DMSO
Text: Macrophage Generation and Stimulation: Primary human donor-derived macrophages were generated as described previously (Martinez, Curr Protocol Immunol 2012, Chapter 14:14.28.1-14.28.23). In brief, Leukopaks from anonymous donors were obtained from the Rhode Island Blood (Providence, RI) and peripheral blood […] (PBMCs) were isolated by density gradients centrifugation using Ficoll Paque Plus (Sigma-Aldrich, Cat #17-1440-02) followed by RBC lysis using RBC lysis buffer (eBioscience, Cat #00-4333-57). For monocyte isolation, PBMCs were incubated in Monocyte Attachment Medium (Sigma-Aldrich, Cat #C-28051) for 1 hour at 37° C. and 5% CO2 and then washed three times in Iscove's Modified Dulbecco's Medium (IMDM) (Gibco, Cat #12440053) to remove non-adherent cells. The remaining monocytes were detached and seeded in 96-well plates and cultured at 37° C. and 5% CO2 in IMDM supplemented with 10% FBS (Atlanta Biologicals, Cat #S11550) and 20 ng/ml recombinant human M-CSF (Peprotech, Cat #AF-300-25). After 4 days monocytes were then treated with 20 ng/ml recombinant human IL-4 (Peprotech, Cat #200-04) and 10 ng/mL recombinant human IL-10 (PeproTech, Cat #200-10) for another 3-4 days to obtain M2 polarized macrophages. Macrophage differentiation was confirmed morphologically using microscopy. M2-macrophage polarization was confirmed by immunophenotyping of the M2 marker CD206 using PE-conjugated anti-human anti-CD206 antibody (BioLegend, Cat #321106, clone 15-2, 1:100 dilution). In vitro Phagocytosis Assays: To facilitate the quantification of phagocytic events, we adapted a microscopy-based fluorescence phagocytosis […] al., J Immunol Methods 2009, 342(1-2):71-7; Lindner et al., Biotechniques 2020, 68(5):245-250) for use with a Celigo imaging cytometer. […] Cells were incubated with pHrodo Red, SE (Invitrogen, Cat #P36600) on ice for 30 min and then co-cultured with PBMC-derived M2 macrophages (prepared as described above) at a ratio of 1:2 (OVCAR8/B cells: macrophages) for 2 hours in a humidified 5% CO2 incubator at 37° C. Phagocytic events were quantified by counting the number of red fluorescent (pHrodo+) cells per well using a Celigo Imaging Cytometer (Nexcelom). EmGFP was used for the visualization of cancer cells in imaging Phagocytic events were also quantified using a previously-described flow cytometry-based assay (Barkal et al., Nature 2019, 572(7769):392-396; […] et al., Biomedicines 2022, 10(5):1175). In brief, M2 macrophages co-cultured with OVCAR8/EmGFP-luc cells were detached using TrypLE Express (GibcoTM, cat #12604013), stained with APC anti-human CD11b clone ICRF44 (BioLegend, Cat #982604) and analyzed by flow cytometry (BioRad ZE5). Double-positive EmGFP+CD11b+ cells were considered phagocytic events.

[2] = system: CALR cell surface expression in OVCAR8 cells; assay: Flow cytometry analysis of Calreticulin (CALR) in OVCAR8 cells; conditions: OVCAR8, 12 hours; docetaxel 100 nM, carboplatin 100 nM, doxorubicin 50 nM; vs DMSO (FIG. 11A)
Description: as §1, with “OVCAR8 cells were treated with Docetaxel (SelleckChem, Cat #S1148) at 100 nM or Carboplatin (SelleckChem, Cat #S1215 at 100 nM or Doxorubicin (SelleckChem, Cat #E2516) at 50 nM for 12 hours.” left out

| SMILES | CD24 cell surface expression (MFI) [1] | macrophage-mediated phagocytosis (OVCAR8 cells) | CALR cell surface expression [2] |
| --- | --- | --- | --- |
| Nc1nc(-c2ccc(Cc3ccccc3)cc2)cs1 [ARM1] | decreased | increased | – |
| N.N.O=C([O-])C1(C(=O)[O-])CCC1.[Pt+2] [carboplatin] | – | – | did not |
| CC(=O)O[C@@]12CO[C@@H]1C[C@H](O)[C@@]1(C)C(=O)[C@H](O)C3=C(C)[C@@H](OC(=O)[C@H](O)[C@@H](NC(=O)OC(C)(C)C)c4ccccc4)C[C@@](O)([C@@H](OC(=O)c4ccccc4)[C@H]21)C3(C)C [docetaxel] | – | – | induced robust |
| COc1cccc2c1C(=O)c1c(O)c3c(c(O)c1C2=O)C[C@@](O)(C(=O)CO)C[C@@H]3O[C@H]1C[C@H](N)[C@H](O)[C@H](C)O1 [doxorubicin] | – | – | did not |
